Source: article PMC10107299, “Neutralizing the Impact of the Virulence Factor LecA from Pseudomonas aeruginosa on Human Cells with New Glycomimetic Inhibitors” (Angewandte Chemie (International Ed. in English), 2023)
In brackets after ≈: the same amount, converted by molar mass.

Experiments:
[1] = Kinetic solubility in TBS/Ca2+ buffer (HPLC-MS); format: physicochemical; settings: aqueous buffer, kinetic from dmso stock; TBS/Ca2+ buffer pH 7.4, 1 % DMSO, N≥3; read-out: Solubility S (kinetic)
Experimental: Next, we quantified the solubility of at least one representative of each new class and of one parent bisacylhydrazone in aqueous media (Table 1). […]
TBS/Ca2+ buffer (20 mM Tris, 137 mM NaCl, 2.6 mM KCl at pH 7.4 supplemented with 1 mM […]
CaCl2) in presence of 25% DMSO. […]
Kinetic solubility was determined on the analytical HPLC-MS using Compass QuantAnalysis quantification software (Bruker). Samples were prepared from DMSO stock solutions by dilution with TBS/Ca2+ buffer to 100 µM with 1% DMSO present. Samples were incubated on a shaker for 1 h at r.t., centrifuged (21380 g, 20 min), supernatants were diluted with DMSO (1:3), analyzed by HPLC-MS and fitted to the individual calibration curves.
Every experiment was repeated independently at least three times. […]

[2] = In vitro metabolic stability, human liver microsomes; format: in vitro ADME; settings: N=3, read-out: CLint HLM
Experimental: We then determined the in vitro metabolic stability in plasma and liver microsomes as well as plasma protein binding for a selected subset of the synthesized LecA inhibitors, i.e. D1, D2, H1, H2 and L2 and compared them to the parent bisacylhydrazone 14 (Table 2). […] The metabolic stability of the compounds differed in presence of human liver microsomes (HLM). Introduction of a pyridine ring decreased stability (H1 CLint=28.6 μL min^−1/mg protein, H2 CLint=32.5 μL min^−1/mg protein) compared to the benzene analogues (D1 CLint=21.9 μL min^−1/mg protein, D2 CLint=21.0 μL min^−1/mg protein) and to the parent acylhydrazone 14 (CLint=19.6 μL min^−1/mg protein). […]
(§1) mixer (Eppendorf). Acetonitrile and caffeine were dispensed using a Mantis Formulatrix. Then samples were centrifuged for 20 min at 2.270 x g at 4 °C and the supernatants were transferred to 96-well Greiner V-bottom plates. Peak areas of each compound and of the internal standard were analyzed using the MultiQuant 3.0 software (AB Sciex). Peak areas of the respective compound were normalized to the internal standard peak area and to the respective peak areas at time point 0 min: (C/D)/(A/B) with A: peak area of the compound at time point 0 min, B: peak area of the internal standard at time point 0 min, C: peak area of the compound at the respective time point, D: peak area of the internal standard at the respective time point.
In vitro metabolic stability assay
Liver microsomes (mouse and human, Thermo Fisher) were thawed slowly on ice. 20 mg/mL of microsomes, 2 µL of a 100 µM solution of every compound and 183 µL of 100 mM phosphate buffer were incubated 5 min at 37 °C in a water bath. Reactions were initiated using 10 µL of 20 mM NADPH (CarlRoth). Samples were incubated in three replicates at 37 °C under gentle agitation at 150 rpm. At 0, 5, 15, 30, and 60 min, reactions were terminated by the addition of 180 µL acetonitrile using a Mantis Formulatrix dispenser. Samples were vortexed for 5 min using an Eppendorf MixMate vortex mixer and centrifuged at 2.270 x g for 20 min at 4 °C. The supernatants were transferred to 96-well Greiner V-bottom plates, sealed and analyzed according to the section HPLC-MS analysis. Peak areas of the respective time point of the compounds were normalized to the peak area at time point 0 min. Then half-life was calculated using linear regression (Microsoft Excel). Clint [µL/min/mg protein] was calculated using the following formula: […]

[3] = tested on: plasma protein; test: Plasma protein binding (rapid equilibrium device), murine plasma; format: in vitro ADME, mouse; settings: 1 µM
Experimental: as §1, with “point. […]” for “point.”
Assessment of plasma protein binding
Plasma protein binding was assessed using the rapid equilibrium device (RED) system from ThermoFisher. Compounds were dissolved in DMSO. […]
high plasma protein binding. Compounds were diluted in murine plasma (from CD-1 mice, pooled) or in human plasma (human donors, both genders, pooled) to a final concentration of 1 µM. Dialysis buffer and plasma samples were added to the respective chambers according the manufacturer’s protocol. The RED plate was sealed with a tape and incubated at 37 °C for 2 hours at 800 rpm on an Eppendorf MixMate vortex-mixer. Then samples were withdrawn from the respective chambers. To 25 µL of each dialysis sample, 25 µL of plasma and to 25 µL of plasma sample, 25 µL of dialysis buffer was added. Then 150 µL ice-cold extraction solvent (ACN/H2O (90:10) containing 12.5 ng/mL caffeine as internal standard) was added. Samples were incubated for 30 min on ice. Then samples were centrifuged at 4 °C at 2270 x g for 10 min.
Supernatants were transferred to Greiner V-bottom 96-well plates and sealed with a tape. The […]
percentage of bound compound was calculated as follows:
(1) % free = (concentration buffer chamber / concentration plasma chamber) *100 […]
Samples were analyzed using an Agilent 1290 Infinity II HPLC system coupled to an AB Sciex QTrap 6500plus mass spectrometer. LC conditions were as follows: column: Agilent […]
Zorbax Eclipse Plus C18, 50x2.1 mm, 1.8 µm; temperature: 30 °C; injection volume: 5 µL per […]
sample; flow rate: 700 µL/min. Samples were run under acidic and buffered conditions.
Solvents for acidic conditions: A1: water + 0.1% formic acid; solvent B1: 95% acetonitrile/5% […]
H2O + 0.1% formic acid; solvents for buffered conditions: A2: 95% water + 5% acetonitrile + […]
5 mM ammonium acetate + 40 µL/L acetic acid; B2: 95% acetonitrile + 5% water + 5 mM […]
ammonium acetate + 40 µL/L acetic acid. The same gradient was applied for acidic and […]
buffered conditions: 99% A at 0 min, 99% A until 1 min, 99% - 0% A from 1 min to 4.0 min, […]
0% A until 5.0 min. Mass transitions for controls and compounds are depicted in the following […]

Structure (SMILES) | solubility kinetic at 1 h [1] | microsomal CLint at 1 µM [2] | PPB Mouse [3]
O=C(/C=C/c1ccc(O[C@@H]2O[C@H](CO)[C@H](O)[C@H](O)[C@H]2O)cc1)Nc1ccc(OCCOc2ccc(NC(=O)/C=C/c3ccc(O[C@@H]4O[C@H](CO)[C@H](O)[C@H](O)[C@H]4O)cc3)cc2)cc1 [Compound D1] | 3.3 ± 1.3 µM (≈ 2.84 µg/mL) | 21.9 µL/min/mg | 
O=C(CCc1ccc(O[C@@H]2O[C@H](CO)[C@H](O)[C@H](O)[C@H]2O)cc1)Nc1ccc(OCCOc2ccc(NC(=O)CCc3ccc(O[C@@H]4O[C@H](CO)[C@H](O)[C@H](O)[C@H]4O)cc3)cc2)cc1 [Compound D2] | 3.1 ± 2.1 µM (≈ 2.68 µg/mL) | 21 µL/min/mg | 
O=C(/C=C/c1ccc(O[C@@H]2O[C@H](CO)[C@H](O)[C@H](O)[C@H]2O)cc1)Nc1ccc(OCCOc2ccc(NC(=O)/C=C/c3ccc(O[C@@H]4O[C@H](CO)[C@H](O)[C@H](O)[C@H]4O)cc3)cn2)nc1 [Compound H1] | 8.1 ± 2.2 µM (≈ 6.99 µg/mL) | 28.6 µL/min/mg | 
O=C(CCc1ccc(O[C@@H]2O[C@H](CO)[C@H](O)[C@H](O)[C@H]2O)cc1)Nc1ccc(OCCOc2ccc(NC(=O)CCc3ccc(O[C@@H]4O[C@H](CO)[C@H](O)[C@H](O)[C@H]4O)cc3)cn2)nc1 [Compound H2] | 14.8 ± 1.5 µM (≈ 12.8 µg/mL) | 32.5 µL/min/mg | 97.6 ± 2.1%
O=C(CCc1ccc(O[C@@H]2O[C@H](CO)[C@H](O)[C@H](O)[C@H]2O)cc1)Nc1ccc(CCc2ccc(NC(=O)CCc3ccc(O[C@@H]4O[C@H](CO)[C@H](O)[C@H](O)[C@H]4O)cc3)cc2S(=O)(=O)O)c(S(=O)(=O)O)c1 [Compound L2] |  | 9.2 µL/min/mg | 14.5 ± 6.8%
